Biological target: T1, hDGAT1 (Homo sapiens, UniProt O75907)
T1 construct: host or cells: Sf9 insect cells (baculovirus); microsomal preparation
T1 sequence (O75907 1-488): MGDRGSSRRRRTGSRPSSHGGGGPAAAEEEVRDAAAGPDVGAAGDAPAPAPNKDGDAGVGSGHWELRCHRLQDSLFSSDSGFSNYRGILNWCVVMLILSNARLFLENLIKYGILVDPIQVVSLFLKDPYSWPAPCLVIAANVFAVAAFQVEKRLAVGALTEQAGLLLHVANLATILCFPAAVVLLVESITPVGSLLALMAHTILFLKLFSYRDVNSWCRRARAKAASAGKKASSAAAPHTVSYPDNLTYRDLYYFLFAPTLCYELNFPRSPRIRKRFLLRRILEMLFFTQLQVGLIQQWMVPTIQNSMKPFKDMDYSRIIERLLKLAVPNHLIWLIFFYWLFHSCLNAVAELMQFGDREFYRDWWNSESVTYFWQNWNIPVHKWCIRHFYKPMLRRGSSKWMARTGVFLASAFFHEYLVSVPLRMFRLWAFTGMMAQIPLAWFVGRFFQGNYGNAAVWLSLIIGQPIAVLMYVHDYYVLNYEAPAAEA
Test: In-vitro DGAT1 assay (hDGAT1 microsomes from Sf9 cells, 14C oleoyl CoA, triglyceride formation)
Assay type: biochemical
Details: At 1 μM
Method in brief: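 Compounds tested in duplicate at 10, 5 and 1 μM for 10 min at 37 °C. Reaction: Sf9-expressed hDGAT1 microsomes (2.5–10 μg), [14C]oleoyl-CoA plus 409.5–1638 μM dioleoylglycerol, pH 7.4 Tris-HCl with fatty-acid-free BSA. Radiolabelled triglyceride extracted into heptane and scintillation-counted.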

| inhibition at 1 µM [%] | % inhibition of hDGAT1 | Structure (SMILES) |
| --- | --- | --- |
| 50 to 75 | – | C=C(NC(=O)c1cc(-c2ccc(NC(=O)Nc3ccccc3F)cc2)no1)C(=O)O [Example 302, 2-(3-(4-(3-(2-Fluorophenyl)ureido)phenyl)isoxazole-5-carboxamido) acrylic acid] |
| 75 to 100 | – | CC(C)[C@H](NC(=O)c1cc(-c2ccc(NC(=O)Nc3ccc(Oc4ccccc4)cc3)cc2)no1)C(=O)O [Example 240, (S)-3-Methyl-2-(3-(4-(3-(4-phenoxyphenyl)ureido)phenyl)isoxazole-5-carboxamido)butanoic acid] |
| 75 to 100 | – | COc1ccccc1NC(=O)Nc1ccc(-c2cc(C(=O)N[C@H](C(=O)O)C(C)C)on2)cc1 [Example 185, (S)-2-(3-(4-(3-(2-methoxyphenyl)ureido)phenyl)isoxazole-5-carboxamido)-3-methylbutanoic acid] |
| 0 to 50 | – | CC(C)[C@H](NC(=O)c1cc(-c2ccc(NC(=O)Nc3c(Cl)cccc3C(F)(F)F)cc2)no1)C(=O)O [Example 234, (S)-2-(3-(4-(3-(2-Chloro-6-(trifluoromethyl)phenyl)ureido)phenyl)isoxazole-5-carboxamido)-3-methylbutanoic acid] |
| 50 to 75 | – | CC(C)[C@H](NC(=O)c1csc(-c2ccc(NC(=O)Nc3ccc(Cl)cc3Oc3ccccc3)cc2)n1)C(=O)O [Example 365, (S)-2-(2-(4-(3-(4-chloro-2-phenoxyphenyl)ureido)phenyl)thiazole-4-carboxamido)-3-methylbutanoic acid] |
| 0 to 50 | – | COC(=O)[C@H](NC(=O)c1cc(-c2ccc(NC(=O)Nc3ccccc3Cl)cc2)no1)C(C)C [Example 220, (R)-Methyl 2-(3-(4-(3-(2-chlorophenyl)ureido)phenyl)isoxazole-5-carboxamido)-3-methylbutanoate] |
| 75 to 100 | – | CC(C)C(NC(=O)c1cc(-c2ccc(NC(=O)Nc3ccc(F)c(Cl)c3)cc2)no1)C(=O)O (centres unmarked) [Example 162, 2-(3-(4-(3-(3-chloro-4-fluorophenyl)ureido)phenyl)isoxazole-5-carboxamido)-3-methylbutanoic acid] |
| – | +++ (>75% Inhibition ≦100) | CC(C)C(NC(=O)c1cc(-c2ccc(NC(=O)Nc3ccc(OC(F)(F)F)c(Cl)c3)cc2)no1)C(=O)O (centres unmarked) [Example 289, (3-(4-(3-(3-chloro-4-(trifluoromethoxy)phenyl)ureido)phenyl)isoxazole-5-carboxamido)-3-methylbutanoic acid] |
| 75 to 100 | – | CC(C)[C@H](NC(=O)c1cc(-c2ccc(NC(=O)Nc3cc(F)ccc3F)cc2)no1)C(=O)O [Example 199, (S)-2-(3-(4-(3-(2,5-Difluorophenyl)ureido)phenyl)isoxazole-5-carboxamido)-3-methylbutanoic acid] |
| 0 to 50 | – | CC(C)[C@@H](NC(=O)c1cc(-c2ccc(NS(=O)(=O)c3ccc(C(F)(F)F)cc3)cc2)no1)C(=O)O [Example 319, (R)-3-methyl-2-(3-(4-(4-(trifluoromethyl)phenylsulfonamido)phenyl)isoxazole-5-carboxamido)butanoic acid] |
| 50 to 75 | – | CC(C)[C@@H](C(=O)O)N(C)C(=O)c1cc(-c2ccc(NC(=O)Nc3ccccc3F)cc2)no1 [Example 306, (S)-2-(3-(4-(3-(2-fluorophenyl)ureido)phenyl)-N-methylisoxazole-5-carboxamido)-3-methylbutanoic acid] |

Same assay, conditions: At 5 μM

| inhibition at 5 µM [%] | Structure (SMILES) |
| --- | --- |
| 50 to 75 | C=C(NC(=O)c1cc(-c2ccc(NC(=O)Nc3ccccc3F)cc2)no1)C(=O)OC [Example 301, Methyl 2-(3-(4-(3-(2-fluorophenyl)ureido)phenyl)isoxazole-5-carboxamido)acrylate] |
| 75 to 100 | Cc1ccccc1NC(=O)Nc1ccc(-c2cc(C(=O)NC(C(=O)O)C(C)C)on2)cc1 (centres unmarked) [Example 154, 3-methyl-2-(3-(4-(3-o-tolylureido)phenyl)isoxazole-5-carboxamido) butanoic acid] |
| 0 to 50 | COC(=O)C(NC(=O)c1cc(-c2ccc(NC(=O)Nc3ccccc3F)cc2C)no1)C(C)C (centres unmarked) [Example 135, Methyl 2-(3-(4-(3-(2-fluorophenyl)ureido)-2-methylphenyl)isoxazole-5-carboxamido)-3-methylbutanoate] |
| 0 to 50 | COC(=O)[C@@H](NC(=O)c1cc(-c2ccc(NC(=O)Nc3ccc(F)cc3F)cc2F)no1)C(C)C [Example 141, (S)-Methyl 2-(3-(4-(3-(2,4-difluorophenyl)ureido)-2-fluorophenyl)isoxazole-5-carboxamido)-3-methylbutanoate] |

Same assay, conditions: At 10 μM

| inhibition at 10 µM [%] | % inhibition of hDGAT1 | Structure (SMILES) |
| --- | --- | --- |
| 0 to 50 | – | O=C(O)c1cc(-c2ccc(Nc3nc4ccc(F)cc4s3)cc2)no1 [Example 2, 3-[4-(6-Fluoro-benzothiazol-2-ylamino)-phenyl]-isoxazole-5-carboxylic acid] |
| 0 to 50 | – | NC(=O)c1cc(-c2ccc(Nc3nc4ccc(F)cc4s3)cc2)no1 [Example 3, 3-[4-(6-Fluoro-benzothiazol-2-ylamino)-phenyl]-isoxazole-5-carboxylic acid amide] |
| 75 to 100 | – | O=C(N[C@H](C(=O)O)c1ccccc1)c1cc(-c2ccc(Nc3nc4ccc(F)cc4s3)cc2)no1 [Example 53, (S)-({3-[4-(6-Fluoro-benzothiazol-2-ylamino)-phenyl]-isoxazole-5-carbonyl}-amino)-phenyl-acetic acid] |
| 0 to 50 | – | CC(C)[C@H](NC(=O)c1onc(-c2ccc(NC(=O)Nc3ccc(F)cc3)cc2)c1-c1ccccc1)C(=O)O [Example 93, (S)-2-[(3-{4-[3-(4-Fluoro-phenyl)-ureido]-phenyl}-4-phenyl-isoxazole-5-carbonyl)-amino]-3-methyl-butyric acid] |
| – | +++ (>75% Inhibition ≦100) | CC(C)C(NC(=O)c1cc(-c2ccc(NC(=O)Nc3ccccc3F)c(F)c2)no1)C(=O)O (centres unmarked) [Example 148, 2-(3-(3-fluoro-4-(3-(2-fluorophenyl)ureido)phenyl)isoxazole-5-carboxamide)-3-methylbutanoic acid] |
| 50 to 75 | – | COC(=O)[C@@H]1CCCN1C(=S)c1cc(-c2cccc(Nc3nc4ccc(F)cc4s3)c2)no1 [Example 36, (S)-1-{3-[3-(6-Fluoro-benzothiazol-2-ylamino)-phenyl]-isoxazole-5-carbothioyl}-pyrrolidine-2-carboxylic acid methyl ester] |
| 0 to 50 | – | COC(=O)[C@@H](NC(=O)c1cc(-c2ccc(Nc3nc4ccc(F)cc4s3)cc2)no1)c1ccccc1 [Example 52, (S)-({3-[4-(6-Fluoro-benzothiazol-2-ylamino)-phenyl]-isoxazole-5-carbonyl}-amino)-phenyl-acetic acid methyl ester] |
| 0 to 50 | – | COC(=O)C(CC(C)C)NC(=O)c1cc(-c2cc(NC(=O)Nc3ccc(F)cc3)ccc2C)no1 (centres unmarked) [Example 131, Methyl 2-(3-(5-(3-(4-fluorophenyl)ureido)-2-methylphenyl)isoxazole-5-carboxamido)-4-methylpentanoate] |
| 0 to 50 | – | O=C(O)CNC(=O)c1cc(-c2ccc(Nc3nc4ccc(F)cc4s3)cc2)no1 [Example 59, ({3-[4-(6-Fluoro-benzothiazol-2-ylamino)-phenyl]-isoxazole-5-carbonyl}-amino)-acetic acid] |
| 0 to 50 | – | CCOC(=O)c1cc(-c2cccc(Nc3nc4ccc(F)cc4s3)c2)no1 [Example 20, 3-[3-(6-Fluoro-benzothiazol-2-ylamino)-phenyl]-isoxazole-5-carboxylic acid ethyl ester] |
| 50 to 75 | – | CC(C)C(NC(=O)c1cc(-c2ccc(NC(=O)NCc3ccccc3)cc2)no1)C(=O)O (centres unmarked) [Example 108, 2-(3-(4-(3-Benzylureido)phenyl)isoxazole-5-carboxamido)-3-methylbutanoic acid] |
| – | ++ (>50% Inhibition ≦75) | COC(=O)[C@@H](NC(=O)c1cc(-c2ccc(NC(=O)Nc3ccc(F)cc3)c(F)c2)no1)C(C)C [Example 96] |
| 0 to 50 | – | CC(C)[C@H](NC(=O)c1c(-c2ccc(Nc3nc4ccc(F)cc4s3)cc2)noc1-c1ccccc1)C(=O)O [Example 69, (S)-2-({3-[4-(6-Fluoro-benzothiazol-2-ylamino)-phenyl]-5-phenyl-isoxazole-4-carbonyl}-amino)-3-methyl-butyric acid] |
| 0 to 50 | – | COC[C@H](NC(=O)c1cc(-c2cccc(Nc3nc4ccc(F)cc4s3)c2)no1)C(=O)OC [Example 28, (S)-2-({3-[3-(6-Fluoro-benzothiazol-2-ylamino)-phenyl]-isoxazole-5-carbonyl}-amino)-3-methoxy-propionic acid methyl ester] |
| 0 to 50 | – | COC(=O)CNC(=S)c1cc(-c2ccc(Nc3nc4ccc(F)cc4s3)cc2)no1 [Example 60, ({3-[4-(6-fluoro-benzothiazol-2-ylamino)-phenyl]-isoxazole-5-carbothioyl}-amino)-acetic acid methyl ester] |
| 75 to 100 | – | CC(C)CC(NC(=O)c1cc(-c2ccc(NC(=O)Nc3ccc(F)cc3F)cc2)no1)C(=O)O (centres unmarked) [Example 114, 2-(3-(4-(3-(2,4-Difluorophenyl)ureido)phenyl)isoxazole-5-carboxamido)-4-methylpentanoic acid] |
| 75 to 100 | – | CC(C)C(NC(=O)c1cc(-c2ccc(NC(=O)Nc3c(F)cccc3F)cc2)no1)C(=O)O (centres unmarked) [Example 124, 2-(3-(4-(3-(2,6-difluorophenyl)ureido)phenyl)isoxazole-5-carboxamido)-3-methylbutanoic acid] |

From patent publication US8835428B2, “Diacylglycerol acyltransferase inhibitors” (Piramal Enterprises Limited, priority 2008, dated 2014)
